Source: patent publication US11873298B2, “Compounds and uses thereof” (JANSSEN PHARMACEUTICA NV, priority 2017, dated 2024)
Values joined by “and” are separate entries in the source; they are usually repeats but may differ in a detail not shown here. Equal values may be shown once.

Key:
Assay type in all cases: cell-based
[1] = target: T1, Ole1 (Saccharomyces cerevisiae, UniProt P21147); test: Growth inhibition of yeast strain expressing Ole1 as sole desaturase; conditions: yeast strain expressing Ole1 as sole desaturase
T1 construct: expressed in transfected cells; host or cells: S. cerevisiae ole1Δ strain (W303 pdr1Δ pdr3Δ background), plasmid pRS316 with TDH3 promoter and CYC1 terminator
T1 sequence (P21147 1-510): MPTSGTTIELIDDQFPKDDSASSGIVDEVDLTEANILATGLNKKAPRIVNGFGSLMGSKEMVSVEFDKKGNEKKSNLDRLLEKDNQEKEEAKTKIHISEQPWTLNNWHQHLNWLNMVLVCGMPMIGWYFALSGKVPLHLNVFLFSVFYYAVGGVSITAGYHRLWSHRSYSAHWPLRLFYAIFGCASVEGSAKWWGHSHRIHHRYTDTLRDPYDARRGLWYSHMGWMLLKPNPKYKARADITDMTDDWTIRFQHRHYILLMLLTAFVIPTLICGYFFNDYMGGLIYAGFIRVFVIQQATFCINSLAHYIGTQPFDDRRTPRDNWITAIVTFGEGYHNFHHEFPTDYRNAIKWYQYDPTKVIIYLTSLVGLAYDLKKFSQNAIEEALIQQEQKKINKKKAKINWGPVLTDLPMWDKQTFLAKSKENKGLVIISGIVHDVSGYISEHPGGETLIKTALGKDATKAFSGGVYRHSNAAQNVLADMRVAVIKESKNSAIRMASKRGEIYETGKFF
Outline: (§1)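 Yeast ole1Δ strain (W303 pdr1Δ pdr3Δ background) carrying plasmid-borne Ole1, SCD1 or SCD5 as sole desaturase was grown in uracil-lacking media, pre-cultured in raffinose for 6 h, then seeded in galactose medium with compound in DMSO. Growth was read as OD600 after 30° C. incubation: 24 h for Ole1, 40 h for SCD1/SCD5.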

[2] = target: T2, SCD1 (Homo sapiens, UniProt O00767); test: Growth inhibition of humanized yeast strain expressing SCD1 as sole desaturase; conditions: humanized yeast strain expressing SCD1
T2 construct: host or cells: S. cerevisiae ole1Δ strain (W303 pdr1Δ pdr3Δ background), plasmid pRS316 with TDH3 promoter and CYC1 terminator
T2 sequence (O00767 1-359): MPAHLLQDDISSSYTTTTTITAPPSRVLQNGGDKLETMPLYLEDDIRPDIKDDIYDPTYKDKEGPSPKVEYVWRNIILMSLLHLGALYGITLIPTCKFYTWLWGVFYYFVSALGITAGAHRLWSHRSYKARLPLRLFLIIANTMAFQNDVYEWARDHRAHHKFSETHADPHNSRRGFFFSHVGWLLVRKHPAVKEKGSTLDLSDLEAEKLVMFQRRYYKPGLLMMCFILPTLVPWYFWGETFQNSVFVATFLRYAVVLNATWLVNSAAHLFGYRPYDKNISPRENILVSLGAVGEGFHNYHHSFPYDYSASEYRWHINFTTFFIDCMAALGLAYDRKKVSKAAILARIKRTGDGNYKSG
Outline: as §1

[3] = target: T3, SCD5 (Homo sapiens, UniProt Q86SK9); test: Growth inhibition of humanized yeast strain expressing SCD5 as sole desaturase; conditions: humanized yeast strain expressing SCD5
T3 construct: host or cells: S. cerevisiae ole1Δ strain (W303 pdr1Δ pdr3Δ background), plasmid pRS316 with TDH3 promoter and CYC1 terminator
T3 sequence (Q86SK9 1-330): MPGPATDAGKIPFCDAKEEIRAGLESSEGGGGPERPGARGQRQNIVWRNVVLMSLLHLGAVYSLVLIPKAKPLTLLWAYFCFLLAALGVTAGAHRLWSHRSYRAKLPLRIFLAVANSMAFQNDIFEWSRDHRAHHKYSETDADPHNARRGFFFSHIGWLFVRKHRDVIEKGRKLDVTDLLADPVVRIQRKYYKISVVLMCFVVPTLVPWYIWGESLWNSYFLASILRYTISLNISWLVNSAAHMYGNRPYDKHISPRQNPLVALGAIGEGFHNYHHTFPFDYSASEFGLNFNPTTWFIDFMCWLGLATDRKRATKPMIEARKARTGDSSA
Outline: as §1

Row | Compound | IC50 [1] | OLE1 % Max Inhibition [1] | SCD1 % Max Inhibition [2] | IC50 [3] [µM] | SCD5 % Max Inhibition [3] | IC50 [2]
1 | Cc1nn(C)c2cc(-c3noc(C4CCN(C(=O)c5cccc(F)c5)CC4)n3)ccc12 [Compound 284] | > 45 µM | 12.40% | 4.81% | > 45 | 6.80% | –
2 | CC(C)c1ccc(C(=O)N2CCC(c3nc(C(=O)Nc4cnn(C)c4)no3)CC2)cc1 [Compound 285] | > 45 µM | 105.26% | 45.62% | > 45 | 30.09% | –
3 | Cc1nn(C2CC2)c2cc(-c3noc(C4CCN(C(=O)CNC(=O)c5ccccc5)CC4)n3)ccc12 [Compound 286] | > 45 µM | 5.18% and 4.35% | 13.04% and 14.44% | > 45 | 8.76% and 9.55% | –
4 | CC(C)c1ccc(C(=O)N2CCC(c3nc(C(=O)Nc4ccnn4C)no3)CC2)cc1 [Compound 287] | > 45 µM | 93.89% | 72.51% | > 45 | 66.81% | –
5 | Cc1nn(C)c2cc(-c3noc(C4CCN(C(=O)c5ccccc5Cl)CC4)n3)ccc12 [Compound 288] | > 45 µM | 7.14% | 8.71% | > 45 | 7.52% | –
6 | Cc1c2ccc(-c3noc(C4CCN(C(=O)CNC(=O)c5ccccc5)CC4)n3)cc2nn1C(C)C [Compound 289] | > 45 µM | 45.87% | 62.01% | > 45 | 77.71% | –
7 | Cc1nn(C)c2cc(-c3noc(C4CCN(C(=O)c5ccc(C(C)C)cc5)CC4)n3)ccc12 [Compound 290] | > 45 µM | 20.6% | 3.3% | > 45 | 8.8% | –
8 | Cc1nn(C)c2cc(-c3noc(C4CCN(C(=O)c5ccc(Cl)cc5)CC4)n3)ccc12 [Compound 291] | > 45 µM | – | 5.0% and 0.30% | > 45 | 8.5% and 3.29% | –
9 | Cc1nn(C)c2cc(-c3noc(C4CCN(C(=O)c5cc(F)ccc5C(F)(F)F)CC4)n3)ccc12 [Compound 292] | > 45 µM | 13.6% | 9.5% | > 45 | 10.2% | –
10 | Cc1nn(C)c2cc(-c3noc(N4CCN(C(=O)c5cc(F)ccc5C(F)(F)F)CC4)n3)ccc12 [Compound 293] | 34.9 µM | 66.4% | 12.3% | > 45 | 11.9% | > 45 µM
11 | Cc1nn(C)c2cc(-c3noc(N4CCN(C(=O)c5ccccc5C(F)(F)F)CC4)n3)ccc12 [Compound 295] | > 45 µM | 18.4% | 14.4% | > 45 | 9.2% | –
12 | COc1ccc(-c2noc(C3CCN(C(=O)C4CC(=O)N(c5cccc(C#N)c5)C4)CC3)n2)cc1OC(C)C (stereo not drawn) [Compound 296] | > 45 µM | 99.1% | 86.6% | > 45 | 22.6% | > 45 µM
13 | Cc1nn(C)c2ccc(-c3noc(C4CCN(C(=O)c5ccc(C(C)C)cc5)CC4)n3)cc12 [Compound 297] | 25.2 µM | 42.0% | 5.7% | > 45 | 9.2% | –
14 | CCN1C(=O)CC(C)c2ccc(-c3noc(C4CCN(C(=O)CNC(=O)c5ccccc5)CC4)n3)cc21 (stereo not drawn) [Compound 298] | > 45 µM | 6.6% | 92.3% | > 45 | 21.3% | > 45 µM
15 | CCn1nc(C)c2ccc(-c3noc(C4CCN(C(=O)CNC(=O)c5ccccc5)CC4)n3)cc21 [Compound 299] | > 45 µM | 17.5% and 13.58% | 89.6% and 62.80% | > 45 | 30.1% and 22.61% | ≥ 45 µM
16 | Cc1nn(C)c2cc(-c3nsc(C4CCN(C(=O)OC(C)(C)C)CC4)n3)ccc12 [Compound 300] | > 45 µM | 79.7% | 78.1% | > 45 | 36.0% | –
17 | CCn1nc(C)c2ccc(-c3noc(C4CCN(C(=O)OC(C)(C)C)CC4)n3)cc21 [Compound 301] | > 45 µM | 99.4% | 96.2% | > 45 | 21.0% | –
18 | Cc1ccc(N2C[C@@H](C(=O)N3CCC(c4nc(-c5ccc6c(C)nn(C)c6c5)no4)CC3)CC2=O)nc1 [Compound 302] | > 45 µM | 6.7% and 5.26% | 71.1% and 50.17% | > 45 | 9.4% and 10.64% | 36.1 µM and ≥ 45 µM
19 | Cc1ccc(N2C[C@H](C(=O)N3CCC(c4nc(-c5ccc6c(C)nn(C)c6c5)no4)CC3)CC2=O)nc1 [Compound 303] | > 45 µM | 14.2% and 8.50% | 94.3% and 65% | > 45 | 15.6% and 20.68% | ≥ 45 µM
20 | Cc1nn(C)c2cc(-c3noc(C4CCN(C(=O)CNC(=O)c5cc(F)ccc5C(F)(F)F)CC4)n3)ccc12 [Compound 304] | > 45 µM | 14.7% | 74.9% | > 45 | 51.6% | –
21 | Cc1nn(C)c2cc(-c3noc(C4CCN(C(=O)[C@H]5CC(=O)N(c6cccc(C#N)c6)C5)CC4)n3)ccc12 [Compound 305] | > 45 µM | 6.6% and 4.23% | 73.2% and 55.27% | > 45 | – | ≥ 45 µM
22 | Cc1nn(C)c2cc(-c3noc(C4CCN(C(=O)[C@@H]5CC(=O)N(c6cccc(C#N)c6)C5)CC4)n3)ccc12 [Compound 306] | > 45 µM | 33.2% and 36.88% | 67.6% and 63.32% | > 45 | – | ≥ 45 µM
23 | Cc1nn(C)c2cc(-c3noc(C4CCN(C(=O)[C@H]5CC(=O)N(c6ccc(C#N)cc6)C5)CC4)n3)ccc12 [Compound 307] | > 45 µM | 7.8% and 4.08% | 78.2% and 70.58% | > 45 | 52.5% and 27.45% | ≥ 45 µM
24 | Cc1nn(C)c2cc(-c3noc(C4CCN(C(=O)[C@@H]5CC(=O)N(c6ccc(C#N)cc6)C5)CC4)n3)ccc12 [Compound 308] | > 45 µM and 27.2 µM | 63.7% and 49.30% | 81.6% and 61.05% | > 45 | 15.5% and 6.81% | ≥ 45 µM
25 | CCc1nn(C)c2cc(-c3noc(C4CCN(C(=O)CNC(=O)c5ccccc5)CC4)n3)ccc12 [Compound 309] | > 45 µM | 8.0% | 80.6% | > 45 | 14.7% | –
